# Test results published in PubChem BioAssay (NCI).
#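 Results reflect a 48-hour exposure of cells in 96-well plates to compound at five concentrations. GI50 marks 50% less growth. At the TGI there is no net growth.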
# How the values were obtained:
# Test in all cases: growth of human tumour cells (NCI), 48 h
# [1] = system: 786-0 renal
# [2] = system: A498 renal
# [3] = system: A549 NSCLC
# [4] = system: ACHN renal
# [5] = system: BT-549 breast
# [6] = system: CAKI-1 renal
# [7] = system: CCRF-CEM leukemia
# [8] = system: COLO 205 colon
# [9] = system: DU-145 prostate
# [10] = system: EKVX NSCLC
# [11] = system: HCC-2998 colon
# [12] = system: HCT-116 colon
# [13] = system: HCT-15 colon
# [14] = system: HL-60(TB) leukemia
# [15] = system: HOP-62 NSCLC
# [16] = system: HOP-92 NSCLC
# [17] = system: HS 578T breast
# [18] = system: HT29 colon
# [19] = system: IGROV1 ovarian
# [20] = system: K-562 leukemia
# [21] = system: KM12 colon
# [22] = system: LOX IMVI melanoma
# [23] = system: M14 melanoma
# [24] = system: MALME-3M melanoma
# [25] = system: MCF7 breast
# [26] = system: MDA-MB-231 breast
# [27] = system: MDA-MB-435
# [28] = system: MOLT-4 leukemia
# [29] = system: NCI-H226 lung
# [30] = system: NCI-H23 lung
# [31] = system: NCI-H460 lung
# [32] = system: NCI-H522 lung
# [33] = system: NCI/ADR-RES ovarian
# [34] = system: OVCAR-3 ovarian
# [35] = system: OVCAR-4 ovarian
# [36] = system: OVCAR-5 ovarian
# [37] = system: OVCAR-8 ovarian
# [38] = system: PC-3 prostate
# [39] = system: RPMI-8226 leukemia
# [40] = system: RXF 393 renal
# [41] = system: SF-268 CNS
# [42] = system: SF-295 CNS
# [43] = system: SF-539 CNS
# [44] = system: SK-MEL-2 melanoma
# [45] = system: SK-MEL-28 melanoma
# [46] = system: SK-MEL-5 melanoma
# [47] = system: SK-OV-3 ovarian
# [48] = system: SN12C renal
# [49] = system: SNB-19 CNS
# [50] = system: SNB-75 CNS
# [51] = system: SR leukemia
# [52] = system: SW-620 colon
# [53] = system: T-47D breast
# [54] = system: TK-10 renal
# [55] = system: U251 CNS
# [56] = system: UACC-257 melanoma
# [57] = system: UACC-62 melanoma
# [58] = system: UO-31 renal
compound,measurement,setting,value
C#C[C@]1(O)CC[C@H]2[C@@H]3CC=C4c5sc(-c6ccc(C)cc6)nc5CC[C@]4(C)[C@H]3CC[C@@]21C,GI50,[1],3.41 µM
same,TGI,[1],61.6 µM
same,GI50,[2],> 100 µM
same,TGI,[2],> 100 µM
same,GI50,[3],95.5 µM
same,TGI,[3],> 100 µM
same,GI50,[4],> 100 µM
same,TGI,[4],> 100 µM
same,GI50,[5],25.9 µM
same,TGI,[5],> 100 µM
same,GI50,[6],60.9 µM
same,TGI,[6],> 100 µM
same,GI50,[7],> 100 µM
same,TGI,[7],> 100 µM
same,GI50,[8],> 100 µM
same,TGI,[8],> 100 µM
same,GI50,[9],> 100 µM
same,TGI,[9],> 100 µM
same,GI50,[10],> 100 µM
same,TGI,[10],> 100 µM
same,GI50,[11],> 100 µM
same,TGI,[11],> 100 µM
same,GI50,[12],18.3 µM
same,TGI,[12],> 100 µM
same,GI50,[13],12.8 µM
same,TGI,[13],> 100 µM
same,GI50,[14],35.6 µM
same,TGI,[14],> 100 µM
same,GI50,[15],> 100 µM
same,TGI,[15],> 100 µM
same,GI50,[16],36.5 µM
same,TGI,[16],> 100 µM
same,GI50,[17],4.17 µM
same,TGI,[17],> 100 µM
same,GI50,[18],24.5 µM
same,TGI,[18],> 100 µM
same,GI50,[19],> 100 µM
same,TGI,[19],> 100 µM
same,GI50,[20],9.35 µM
same,TGI,[20],> 100 µM
same,GI50,[21],> 100 µM
same,TGI,[21],> 100 µM
same,GI50,[22],> 100 µM
same,TGI,[22],> 100 µM
same,GI50,[23],30.6 µM
same,TGI,[23],> 100 µM
same,GI50,[24],> 100 µM
same,TGI,[24],> 100 µM
same,GI50,[25],46.8 µM
same,TGI,[25],> 100 µM
same,GI50,[26],> 100 µM
same,TGI,[26],> 100 µM
same,GI50,[27],> 100 µM
same,TGI,[27],> 100 µM
same,GI50,[28],45.2 µM
same,TGI,[28],> 100 µM
same,GI50,[29],> 100 µM
same,TGI,[29],> 100 µM
same,GI50,[30],> 100 µM
same,TGI,[30],> 100 µM
same,GI50,[31],> 100 µM
same,TGI,[31],> 100 µM
same,GI50,[32],> 100 µM
same,TGI,[32],> 100 µM
same,GI50,[33],> 100 µM
same,TGI,[33],> 100 µM
same,GI50,[34],> 100 µM
same,TGI,[34],> 100 µM
same,GI50,[35],> 100 µM
same,TGI,[35],> 100 µM
same,GI50,[36],> 100 µM
same,TGI,[36],> 100 µM
same,GI50,[37],> 100 µM
same,TGI,[37],> 100 µM
same,GI50,[38],26.2 µM
same,TGI,[38],> 100 µM
same,GI50,[39],1.91 µM
same,TGI,[39],> 100 µM
same,GI50,[40],4.29 µM
same,TGI,[40],> 100 µM
same,GI50,[41],> 100 µM
same,TGI,[41],> 100 µM
same,GI50,[42],2.69 µM
same,TGI,[42],> 100 µM
same,GI50,[43],2.31 µM
same,TGI,[43],> 100 µM
same,GI50,[44],> 100 µM
same,TGI,[44],> 100 µM
same,GI50,[45],> 100 µM
same,TGI,[45],> 100 µM
same,GI50,[46],> 100 µM
same,TGI,[46],> 100 µM
same,GI50,[47],> 100 µM
same,TGI,[47],> 100 µM
same,GI50,[48],> 100 µM
same,TGI,[48],> 100 µM
same,GI50,[49],> 100 µM
same,TGI,[49],> 100 µM
same,GI50,[50],6.29 µM
same,TGI,[50],> 100 µM
same,GI50,[51],> 100 µM
same,TGI,[51],> 100 µM
same,GI50,[52],> 100 µM
same,TGI,[52],> 100 µM
same,GI50,[53],93.7 µM
same,TGI,[53],> 100 µM
same,GI50,[54],> 100 µM
same,TGI,[54],> 100 µM
same,GI50,[55],61 µM
same,TGI,[55],> 100 µM
same,GI50,[56],> 100 µM
same,TGI,[56],> 100 µM
same,GI50,[57],> 100 µM
same,TGI,[57],> 100 µM
same,GI50,[58],28.9 µM
same,TGI,[58],> 100 µM
